Patent US20040053896A1, “Pharmaceutically active compound” (priority 2000, published 2004)
Read-outs that look alike come from different tables or passages of the source.

How the values were obtained:
rat hepatocytes = test: Cytotoxicity assay, chromium-51 leakage from monolayer cultures; assay type: cell-based; settings: rat hepatocyte monolayers, 0.012M test material, mean +/- SD, n=5; control 37.61+/-1.56%
Procedure: Activities of supernatants and cells were measured. Chromium-51 leakage is expressed as a percentage of the total activity (medium+cells). Values are mean +/− SD [n=5]. *=P<0.001 CL(CBZ)/CL(CBZ)-Dox and a control (no material added after incubation with chromium-51).

[1] = test system: 12 human tumour cell lines; test: Antiproliferative activity in vitro, propidium iodide DNA content; assay type: cell-based; settings: for mean IC70: mean over 12 human tumour cell lines, 4 days continuous exposure
Procedure: Cholyl-lysyl-doxorubicin (VIII) was investigated for antiproliferative activity in vitro in 12 human tumour cell lines (including the large cell lung carcinoma H460, the mammary carcinoma cell line MCF7, the uterus carcinoma cell line UXF 1138L and the large cell lung carcinoma LXFL 529L), and was compared to free doxorubicin and cholic acid as controls. 5-20.000 cells/well were plated into 96 wells. After 24 hours, the compounds were added in dose levels ranging from 3 nM to 30 μM (cholyl-lysyl-doxorubicin and cholic acid) and from 0.3 nM to 3 μM (doxorubicin), respectively.

HepG2 cells = test: In vitro toxicity test by in situ end labelling (ISEL), % of dead cells; assay type: cell-based; settings: 4 h incubation
Procedure: Cholyl-lysyl-doxorubicin (VIII) synthesised as described above was subjected to cytotoxicity tests in comparison with free doxorubicin and free cholate using in situ end labelling which enables semi-quantitative measure of apoptosis and necrosis.
HepG2 cells (Cobra American Type Culture Collection) in 24 well plates were used. Doxorubicin, cholate or cholyllysyldoxorubicin (in various amounts up to 0.86 μM) was added in triplicate and incubated for 4 h. The cells were trypsinized off from the well plates, cytospun, and then frozen.
In order to measure cell viability, sections were warmed up to room temperature for 30 minutes, then fixed in acetone for 10 minutes, and then wax was introduced around cells.
An in situ end labelling (ISEL) positive mixture was made up which included buffer (1 ml), dATP (1 μl), dCTP (1 μl), dGTP (1 μl), DiglldUTP (1 μl) and Klenow DNA polymerase (4 μl), and an in situ end labelling negative mixture of buffer (1 ml), dATP (1 μl), dCTP (1 μl), dGTP (1 μl), Digll, 2dUTP and water. (4 μl) was also made up. To each cytospin and coverslip was added 60 μl of the ISEL positive mixture or negative mixture. These were then floated in a water bath at 37° C. for 1 h. The coverslips were then removed and washed 3×5 mins in distilled water, followed by washing in TBS pH 7.5 for 5 mins. Anti digoxigen Alkaline phosphatase diluted 1:200 TBS was added and incubated for 1 h at room temperature and then washed in TBS pH 7.5 for 2.5 mins, followed by further washing in TBS pH 8.2 for another 2.5 mins. A substrate mixture was then made up to include naphthol phosphate (10 mg), NN-dimethylformamide (1 ml), Tris pH 8.2 (49) IM Levamasole (50 μl) and Fast blue (50 mg).
The substrate mixture was added to each cytospin and allowed to develop for 15 mins followed by washing in distilled water and then mounted.

[2] = for Cumulative biliary excretion, Mean % Dose: Wistar rats; for Biliary excretion, mean % of radioactivity in the dose administered: bolus via jugular vein, 14C-Dox 1 mg/300 μl or 14C-Cpd VIII 2 mg/300 μl, n=6
[3] = Percentage of dose in liver, heart, urine and blood at 60 min
Procedure: Further tests were performed to estimate the percentage of the dose of the compounds being tested in the liver, heart, urine and blood of Wistar rats.

Solubility in solvents = assay type: physicochemical
[4] = Wistar rats, 60 min after injection

**Q.** For `CC(CCC(=O)NC(CCCCNC(=O)OCc1ccccc1)C(=O)O)C1CCC2C3C(O)CC4CC(O)CCC4(C)C3CC(O)C12C` (centres unmarked) [CL(CBZ), Cholyllsine-N-ε-CBZ], which “Chromium-51 leakage as a percentage of the total activity (medium+cells)” value (rat hepatocytes) is on record?
**A.** Its value is 49.01+/−2.57%.

**Q.** With `COc1cccc2c1C(=O)c1c(O)c3c(c(O)c1C2=O)CC(O)(C(=O)CO)CC3OC1CC(NC(=O)C(CCCCNC(=O)OCc2ccccc2)NC(=O)CCC(C)C2CCC3C4C(O)CC5CC(O)CCC5(C)C4CC(O)C23C)C(O)C(C)O1` (centres unmarked) [CL(CBZ)-Dox, CholyllysylCBZDoxorubicin] as the molecule, how does the “Chromium-51 leakage as a percentage of the total activity (medium+cells)” value (rat hepatocytes) read?
**A.** The value was 36.45+/−3.77%.

**Q.** For `C[C@H](CCC(=O)O)[C@H]1CC[C@H]2[C@@H]3[C@H](O)C[C@@H]4C[C@H](O)CC[C@]4(C)[C@H]3C[C@H](O)[C@]12C` [Cholate, cholic acid], which “antitumour activity in vitro” value ([1]; 12 human tumour cell lines, 3 nM to 30 μM, 4 days exposure) is on record?
**A.** Its value is “no antitumour activity”.

**Q.** And the “Mean % of dead cells” value (HepG2 cells; 0.03 μM)?
**A.** The value was 1%.

**Q.** What about the “Mean % of dead cells” value (HepG2 cells; 0.06 μM) of the same molecule?
**A.** The value was 0%.

**Q.** And the “Mean % of dead cells” value (HepG2 cells; 0.12 μM)?
**A.** Its value is 1.8%.

**Q.** And the “Mean % of dead cells” value (HepG2 cells; 0.86 μM)?
**A.** Its value is 1%.

**Q.** For `COc1cccc2c1C(=O)c1c(O)c3c(c(O)c1C2=O)C[C@@](O)(C(=O)CO)C[C@@H]3O[C@H]1C[C@H](NC(=O)[C@H](CCCCN)NC(=O)CC[C@@H](C)[C@H]2CC[C@H]3[C@@H]4[C@H](O)C[C@@H]5C[C@H](O)CC[C@]5(C)[C@H]4C[C@H](O)[C@]23C)[C@H](O)[C@H](C)O1` [Compound (VIII), Cholyl-Lysyl-Doxorubicin], which “Cumulative biliary excretion, Mean % Dose” value ([2]; cumulative to 0 min) is on record?
**A.** Its value is 0 % Dose.

**Q.** What about the “Cumulative biliary excretion, Mean % Dose” value ([2]; cumulative to 10 min) of the same molecule?
**A.** The value was 41.7 % Dose.

**Q.** And the “Cumulative biliary excretion, Mean % Dose” value ([2]; cumulative to 20 min)?
**A.** The value was 61.7 % Dose.

**Q.** What about the “Cumulative biliary excretion, Mean % Dose” value ([2]; cumulative to 30 min) of the same molecule?
**A.** The value was 69.7 % Dose.

**Q.** What about the “Cumulative biliary excretion, Mean % Dose” value ([2]; cumulative to 40 min) of the same molecule?
**A.** Its value is 75.3 % Dose.

**Q.** And the “Cumulative biliary excretion, Mean % Dose” value ([2]; cumulative to 50 min)?
**A.** Its value is 79.3 % Dose.

**Q.** What about the “Cumulative biliary excretion, Mean % Dose” value ([2]; cumulative to 60 min) of the same molecule?
**A.** The value was 81.8 % Dose.

**Q.** What about the “Biliary excretion, mean % of radioactivity in the dose administered” value ([2]; bile aliquot at 10 min) of the same molecule?
**A.** The value was 41.7%.

**Q.** And the “Biliary excretion, mean % of radioactivity in the dose administered” value ([2]; bile aliquot at 20 min)?
**A.** Its value is 20%.

**Q.** What about the “Biliary excretion, mean % of radioactivity in the dose administered” value ([2]; bile aliquot at 30 min) of the same molecule?
**A.** The value was 8%.

**Q.** What about the “Biliary excretion, mean % of radioactivity in the dose administered” value ([2]; bile aliquot at 40 min) of the same molecule?
**A.** The value was 5.6%.

**Q.** And the “Biliary excretion, mean % of radioactivity in the dose administered” value ([2]; bile aliquot at 50 min)?
**A.** Its value is 4%.

**Q.** What about the “Biliary excretion, mean % of radioactivity in the dose administered” value ([2]; bile aliquot at 60 min) of the same molecule?
**A.** Its value is 2.5%.

**Q.** And the “Biliary excretion, mean % of radioactivity in the dose administered” value ([2]; time 0 min)?
**A.** The value was 0%.

**Q.** What about the “Percentage of dose at 60 min, Mean % dose, Blood” value ([3]; Wistar rats, blood, 60 min after injection) of the same molecule?
**A.** The value was 8.9 % dose.

**Q.** What about the “Percentage of dose at 60 min, Mean % dose, Heart” value ([3]; Wistar rats, heart, 60 min after injection) of the same molecule?
**A.** Its value is 0 % dose.

**Q.** What about the “Percentage of dose at 60 min, Mean % dose, Liver” value ([3]; Wistar rats, liver, 60 min after injection) of the same molecule?
**A.** The value was 14.7 % dose.

**Q.** And the “Percentage of dose at 60 min, Mean % dose, Total” value ([3]; Wistar rats, sum of liver, heart, urine and blood, 60 min)?
**A.** The value was 25.8 % dose.

**Q.** What about the “Percentage of dose at 60 min, Mean % dose, Urine” value [3, 4] of the same molecule?
**A.** Its value is 2.2 % dose.

**Q.** And the “mean IC70” value [1]?
**A.** The value was 1300 nM.

**Q.** What about the “Solubility in non-polar solvents” value (Solubility in solvents; non-polar solvents such as ethoxyethane) of the same molecule?
**A.** The value was “insoluble”.

**Q.** What about the “Solubility in water, methanol and ethanol” value (Solubility in solvents; water, methanol and ethanol) of the same molecule?
**A.** Its value is “soluble”.

**Q.** And the “Mean % of dead cells” value (HepG2 cells; 0.00 μM)?
**A.** Its value is 3.3%.

**Q.** And the “Mean % of dead cells” value (HepG2 cells; 0.03 μM)?
**A.** Its value is 7.6%.

**Q.** And the “Mean % of dead cells” value (HepG2 cells; 0.06 μM)?
**A.** Its value is 10.8%.

**Q.** What about the “Mean % of dead cells” value (HepG2 cells; 0.12 μM) of the same molecule?
**A.** Its value is 20.5%.

**Q.** What about the “Mean % of dead cells” value (HepG2 cells; 0.45 μM) of the same molecule?
**A.** The value was 49%.

**Q.** What about the “Mean % of dead cells” value (HepG2 cells; 0.86 μM) of the same molecule?
**A.** Its value is 96.6%.

**Q.** Which “Cumulative biliary excretion, Mean % Dose” value ([2]; cumulative to 0 min) does the source give for `COc1cccc2c1C(=O)c1c(O)c3c(c(O)c1C2=O)C[C@@](O)(C(=O)CO)C[C@@H]3O[C@H]1C[C@H](N)[C@H](O)[C@H](C)O1` [Doxorubicin, doxorubicin] here?
**A.** The value was 0 % Dose.

**Q.** What about the “Cumulative biliary excretion, Mean % Dose” value ([2]; cumulative to 10 min) of the same molecule?
**A.** The value was 2.3 % Dose.

**Q.** And the “Cumulative biliary excretion, Mean % Dose” value ([2]; cumulative to 20 min)?
**A.** Its value is 7 % Dose.

**Q.** What about the “Cumulative biliary excretion, Mean % Dose” value ([2]; cumulative to 30 min) of the same molecule?
**A.** Its value is 9.6 % Dose.

**Q.** What about the “Cumulative biliary excretion, Mean % Dose” value ([2]; cumulative to 40 min) of the same molecule?
**A.** Its value is 11.7 % Dose.

**Q.** What about the “Cumulative biliary excretion, Mean % Dose” value ([2]; cumulative to 50 min) of the same molecule?
**A.** The value was 12.7 % Dose.

**Q.** What about the “Cumulative biliary excretion, Mean % Dose” value ([2]; cumulative to 60 min) of the same molecule?
**A.** The value was 13.5 % Dose.

**Q.** And the “Biliary excretion, mean % of radioactivity in the dose administered” value ([2]; bile aliquot at 10 min)?
**A.** Its value is 2.3%.

**Q.** What about the “Biliary excretion, mean % of radioactivity in the dose administered” value ([2]; bile aliquot at 20 min) of the same molecule?
**A.** The value was 4.7%.

**Q.** And the “Biliary excretion, mean % of radioactivity in the dose administered” value ([2]; bile aliquot at 30 min)?
**A.** Its value is 2.6%.

**Q.** And the “Biliary excretion, mean % of radioactivity in the dose administered” value ([2]; bile aliquot at 40 min)?
**A.** Its value is 2.4%.

**Q.** And the “Biliary excretion, mean % of radioactivity in the dose administered” value ([2]; bile aliquot at 50 min)?
**A.** The value was 1%.

**Q.** And the “Biliary excretion, mean % of radioactivity in the dose administered” value ([2]; bile aliquot at 60 min)?
**A.** The value was 0.8%.

**Q.** And the “Biliary excretion, mean % of radioactivity in the dose administered” value ([2]; time 0 min)?
**A.** The value was 0%.

**Q.** What about the “Percentage of dose at 60 min, Mean % dose, Urine” value [3, 4] of the same molecule?
**A.** The value was 4 % dose.

**Q.** What about the “Percentage of dose at 60 min, Mean % dose, Blood” value ([3]; Wistar, rat, in vivo, 60 min) of the same molecule?
**A.** The value was 74.7 % dose.

**Q.** What about the “Percentage of dose at 60 min, Mean % dose, Heart” value ([3]; Wistar, rat, in vivo, 60 min) of the same molecule?
**A.** Its value is 10.8 % dose.

**Q.** And the “Percentage of dose at 60 min, Mean % dose, Liver” value ([3]; Wistar, rat, in vivo, 60 min)?
**A.** Its value is 1.9 % dose.

**Q.** What about the “mean IC70” value [1] of the same molecule?
**A.** Its value is 700 nM.

**Q.** And the “Mean % of dead cells” value (HepG2 cells; 0.03 μM)?
**A.** Its value is 9.4%.

**Q.** And the “Mean % of dead cells” value (HepG2 cells; 0.06 μM)?
**A.** The value was 14.9%.

**Q.** And the “Mean % of dead cells” value (HepG2 cells; 0.12 μM)?
**A.** Its value is 28.9%.

**Q.** What about the “Mean % of dead cells” value (HepG2 cells; 0.45 μM) of the same molecule?
**A.** The value was 50%.

**Q.** What about the “Mean % of dead cells” value (HepG2 cells; 0.86 μM) of the same molecule?
**A.** Its value is 100%.
